# Assay results: patent US20090214454A1, “METHOD FOR SKIN WHITENING USING (2Z, 8Z) - MATRICARIA ACID METHYL ESTER” (INHA-INDUSTRY PARTNERSHIP INSTITUTE, priority 2008, published 2009)
# Legend:
# melan-A cells [1] = assay: Melanin generation inhibition by measuring OD405 in melan-A melanocytes; assay type: cell-based; conditions: for Melanin generation rate (%): culture for three days, vs non-treated group = 100
# Experimental: Melan-A melanocytes were provided by AmorePacific Co., Korea. Melan-A is the cell line producing melanin, which has been usually used for the examination of a whitening agent. For cell culture, RPMI1640 medium supplemented with 10% FBS, 1% penicillin/streptomycin, and 200 nM TPA was prepared and sterilized. The cells were cultured in a 37° C., 10% CO2 incubator. When the melan-A cells were grown to fill 90% of 100 mm Petri-dish, the cells were sub-cultured.
# The cells were recovered by using trypsine-EDTA. 1N NaOH containing 10% DMSO (dimethylsulfoxide) was added to the recovered cells, followed by reaction at 80° C. for 1 hour to let melanin dissolved fully. Then, OD405 was measured using ELISA reader (VERSAmax, Molecular device, USA). Melanin generation was quantified by the following mathematical formula 1 (Table 1, FIGS. 4 and 5).
# Melanin generation rate (%)=OD of treated group/OD of non-treated group×100 [Mathematical Formula 1]
# melan-A cells [2] = assay: Cytotoxicity test (MTT, OD540) in Melan-A cells; assay type: cell-based; conditions: for Cell survival rate (%): Melan-A cells, MTT, three days, vs non-treated group = 100
# Experimental: Upon completion of the culture, the medium was eliminated and 100 μl of MTT (3-(4,5-dimethythiazol-2-yl)-2,5-diphenyltetrazoliu,bromide) solution was added to each well of the plate, followed by reaction at 37° C. for 4 hours. Upon completion of the reaction, the solution was eliminated and 100 μl of DMSO was added to each well of the plate to lyse the stained cells. Then, OD540 was measured using ELISA reader. Cell survival rate was calculated by the following mathematical formula 2 (Table 2, FIGS. 4 and 5).
# Cell survival rate (%)=(OD of treated group/OD of non-treated group)×100 [Mathematical Formula 2]
structure (smiles),measurement,setting,value
"C/C=C\C#CC#C/C=C\C(=O)OC [(2Z,8Z)-matricaria acid methyl ester]",Melanin generation rate (%),melan-A cells [1]; 4.5 uM,36.37%
same,Melanin generation rate (%),melan-A cells [1]; 9 uM,26.92%
same,Melanin generation (result in words),melan-A cells [1]; compared with non-treated negative control (and positive control PTU for the compound),inhibited melanin generation at a lower concentration
same,Cell survival rate (%),melan-A cells [2]; 4.5 uM,106.66%
same,Cell survival rate (%),melan-A cells [2]; 9 uM,99.44%
same,Cytotoxicity (result in words),melan-A cells [2]; at a low concentration,no cytotoxicity was observed
"NC(=S)Nc1ccccc1 [Phenylthiourea, phenylthiourea, reference compound]",Melanin generation rate (%),melan-A cells [1]; 50 uM,36.19%
same,Cell survival rate (%),melan-A cells [2]; 50 uM,100.19%
